Columns and labels:
[1] = target: purified recombinant human JAK3 protein (Homo sapiens (Human), UniProt P52333); test: JAK3 kinase-inhibiting activity (mobility shift, LabChip EZ Reader II); type: biochemical; settings: for IC50: ATP 5 μM, 25° C., 80 minutes
Method: 3) Measurement of JAK3 Kinase-Inhibiting Activity
The activity of the compound of the present invention to inhibit the activity of JAK3 kinase was measured.
(§1) Among materials for the measurement of this inhibiting activity, a substrate peptide and a kinase protein were acquired as follows. As such a substrate peptide, a substrate peptide for QSS Assist JAK3-MSA assay kit (Carna Biosciences, Inc.) was purchased. As such a kinase protein, a purified recombinant human JAK3 protein (Carna Biosciences, Inc.) was purchased.
The method for measuring the inhibiting activity is as follows. First, a serial dilution of the compound of the present invention was prepared by the same method as that described in the above section regarding JAK1. This serial dilution solution (the final concentration of DMSO upon a kinase reaction: 5.0%) or DMSO (final concentration: 5.0%) was mixed with a solution comprising the substrate peptide (final concentration: 1 μM), magnesium chloride (final concentration: 5 mM) and ATP (final concentration: 5 μM) in a buffer for kinase reaction (20 mM HEPES (pH 7.5), 2 mM dithiothreitol and 0.01% Triton X-100). Thereafter, a JAK3 protein was further added to the mixed solution, and the obtained mixture was then incubated at 25° C. for 80 minutes to carry out a kinase reaction. To the reaction solution, EDTA was added to a final concentration of 30 mM, so as to terminate the reaction. After termination of the reaction, the measurement and the data analysis were carried out by the same methods as those described in the above section regarding JAK1.

[2] = target: purified recombinant human JAK1 protein (Homo sapiens (Human), UniProt P23458); test: JAK1 kinase-inhibiting activity (mobility shift, LabChip EZ Reader II); type: biochemical; settings: ATP 75 μM, 25° C., 120 minutes
Chain of purified recombinant human JAK1 protein (P23458 whole entry): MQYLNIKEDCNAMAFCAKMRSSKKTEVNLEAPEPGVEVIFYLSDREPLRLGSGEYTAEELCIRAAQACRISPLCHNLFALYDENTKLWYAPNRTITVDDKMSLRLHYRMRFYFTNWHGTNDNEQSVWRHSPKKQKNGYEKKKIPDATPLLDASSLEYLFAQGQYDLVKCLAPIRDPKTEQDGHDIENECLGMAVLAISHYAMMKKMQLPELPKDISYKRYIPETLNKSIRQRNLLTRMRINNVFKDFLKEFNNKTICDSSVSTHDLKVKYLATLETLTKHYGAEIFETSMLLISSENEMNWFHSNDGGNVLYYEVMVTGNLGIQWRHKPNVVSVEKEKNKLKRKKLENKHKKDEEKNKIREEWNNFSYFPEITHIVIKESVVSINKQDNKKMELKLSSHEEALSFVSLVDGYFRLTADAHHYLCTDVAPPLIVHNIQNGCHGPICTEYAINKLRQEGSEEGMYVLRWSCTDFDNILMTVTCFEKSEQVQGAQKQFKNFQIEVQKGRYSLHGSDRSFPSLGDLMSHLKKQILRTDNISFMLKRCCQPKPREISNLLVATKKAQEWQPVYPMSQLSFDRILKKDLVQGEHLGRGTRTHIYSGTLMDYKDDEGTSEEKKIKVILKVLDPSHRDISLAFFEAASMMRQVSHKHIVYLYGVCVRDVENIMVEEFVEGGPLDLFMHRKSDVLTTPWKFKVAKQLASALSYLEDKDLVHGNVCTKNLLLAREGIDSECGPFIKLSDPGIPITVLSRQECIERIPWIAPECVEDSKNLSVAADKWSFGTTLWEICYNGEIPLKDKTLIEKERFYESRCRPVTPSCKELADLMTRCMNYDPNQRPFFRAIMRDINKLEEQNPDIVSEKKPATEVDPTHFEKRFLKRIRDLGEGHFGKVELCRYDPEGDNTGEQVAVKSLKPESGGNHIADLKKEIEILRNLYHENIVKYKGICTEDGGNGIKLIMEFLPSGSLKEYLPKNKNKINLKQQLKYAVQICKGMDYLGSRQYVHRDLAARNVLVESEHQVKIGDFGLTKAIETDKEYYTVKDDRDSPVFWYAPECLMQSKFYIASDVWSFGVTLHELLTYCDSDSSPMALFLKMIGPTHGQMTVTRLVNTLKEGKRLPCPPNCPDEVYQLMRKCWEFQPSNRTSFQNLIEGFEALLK
Method: 1) Measurement of JAK1 Kinase-Inhibiting Activity
The activity of the compound of the present invention to inhibit the activity of JAK1 kinase was measured.
as §1, with “JAK1-MSA” for “JAK3-MSA”, “JAK1” for “JAK3”
The method for measuring the inhibiting activity is as follows. First, the compounds of the present invention were each dissolved in dimethyl sulfoxide (DMSO), and a serial dilution was then prepared using DMSO. Subsequently, a serial dilution solution of the compound (the final concentration of DMSO upon a kinase reaction: 5.0%) or DMSO (final concentration: 5.0%) was mixed with a solution comprising the substrate peptide (final concentration: 1 μM), magnesium chloride (final concentration: 5 mM) and ATP (final concentration: 75 μM) in a buffer for kinase reaction (20 mM HEPES (pH 7.5), 2 mM dithiothreitol and 0.01% Triton X-100). Thereafter, a JAK1 protein was further added to the mixed solution, and the obtained mixture was then incubated at 25° C. for 120 minutes to carry out a kinase reaction. To the reaction solution, EDTA was added to a final concentration of 30 mM, so as to terminate the reaction. Finally, using LabChip EZ Reader II (Perkin Elmer Corp.), an unphosphorylated substrate peptide (S) and a phosphorylated peptide (P) were subjected to microchannel capillary electrophoresis, so that the two peptides were separated from each other and were then detected. The amount of a phosphorylation reaction was obtained based on the heights of the peaks of S and P, and the concentration of the compound capable of inhibiting 50% of the phosphorylation reaction was defined as an IC50 value (nM).

[3] = target: purified recombinant human JAK2 protein (Homo sapiens (Human), UniProt O60674); test: JAK2 kinase-inhibiting activity (mobility shift, LabChip EZ Reader II); type: biochemical; settings: ATP 10 μM, 25° C., 80 minutes
Chain of purified recombinant human JAK2 protein (O60674 whole entry): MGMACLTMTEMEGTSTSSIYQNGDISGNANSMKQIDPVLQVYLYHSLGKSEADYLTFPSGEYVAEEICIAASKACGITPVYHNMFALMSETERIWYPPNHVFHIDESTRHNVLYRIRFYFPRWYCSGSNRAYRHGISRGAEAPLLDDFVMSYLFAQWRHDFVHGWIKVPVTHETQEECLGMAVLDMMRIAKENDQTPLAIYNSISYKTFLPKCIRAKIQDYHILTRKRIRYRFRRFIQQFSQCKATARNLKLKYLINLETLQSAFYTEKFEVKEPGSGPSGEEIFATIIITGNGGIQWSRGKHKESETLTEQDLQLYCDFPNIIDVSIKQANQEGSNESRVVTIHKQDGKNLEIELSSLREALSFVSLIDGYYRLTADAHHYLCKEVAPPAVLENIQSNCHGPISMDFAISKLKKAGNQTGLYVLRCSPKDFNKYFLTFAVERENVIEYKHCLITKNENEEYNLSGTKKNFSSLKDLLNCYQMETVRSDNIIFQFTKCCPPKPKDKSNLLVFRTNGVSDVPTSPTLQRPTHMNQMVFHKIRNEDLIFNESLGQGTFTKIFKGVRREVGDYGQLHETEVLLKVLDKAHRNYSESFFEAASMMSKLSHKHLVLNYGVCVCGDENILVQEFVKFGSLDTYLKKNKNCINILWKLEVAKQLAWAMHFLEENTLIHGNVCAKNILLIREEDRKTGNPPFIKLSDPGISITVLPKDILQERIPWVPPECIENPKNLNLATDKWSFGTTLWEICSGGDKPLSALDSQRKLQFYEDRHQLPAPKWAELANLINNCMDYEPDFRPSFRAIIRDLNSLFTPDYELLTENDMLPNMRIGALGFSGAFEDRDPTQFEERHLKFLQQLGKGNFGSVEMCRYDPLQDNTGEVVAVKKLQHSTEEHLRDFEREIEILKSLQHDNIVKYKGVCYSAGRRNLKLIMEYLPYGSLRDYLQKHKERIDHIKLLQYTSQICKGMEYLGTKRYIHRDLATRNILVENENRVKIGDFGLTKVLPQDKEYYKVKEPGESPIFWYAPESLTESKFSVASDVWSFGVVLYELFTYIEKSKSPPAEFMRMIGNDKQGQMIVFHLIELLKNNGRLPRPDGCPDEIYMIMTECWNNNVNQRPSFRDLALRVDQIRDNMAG
Method: 2) Measurement of JAK2 Kinase-Inhibiting Activity
The activity of the compound of the present invention to inhibit the activity of JAK2 kinase was measured.
as §1, with “FL-Peptide 22 (Perkin Elmer Corp.)” for “a substrate peptide for QSS Assist JAK3-MSA assay kit (Carna Biosciences, Inc.)”, “JAK2” for “JAK3”
The method for measuring the inhibiting activity is as follows. First, a serial dilution of the compound of the present invention was prepared by the same method as that described in the above section regarding JAK1. This serial dilution solution (the final concentration of DMSO upon a kinase reaction: 5.0%) or DMSO (final concentration: 5.0%) was mixed with a solution comprising the substrate peptide (final concentration: 1 μM), magnesium chloride (final concentration: 10 mM) and ATP (final concentration: 10 μM) in a buffer for kinase reaction (15 mM Tris (pH 7.5), 2 mM dithiothreitol and 0.01% Tween 20). Thereafter, a JAK2 protein was further added to the mixed solution, and the obtained mixture was then incubated at 25° C. for 80 minutes to carry out a kinase reaction. To the reaction solution, EDTA was added to a final concentration of 30 mM, so as to terminate the reaction. After termination of the reaction, the measurement and the data analysis were carried out by the same methods as those described in the above section regarding JAK1.

human PBMC = test: IL-2-dependent growth of human peripheral blood mononuclear cells (CellTiter-Glo); type: cell-based; settings: 48 h, IL-2 2 ng/mL stimulation, 2 days
Method: The activity of the compound of the present invention to inhibit the IL-2-dependent growth reaction of human PBMC, which is caused by JAK3, was measured (Arthritis Rheum. 2010; 62(8): 2283-93).
Using a medium comprising 10 μg/mL PHA-M (Sigma) (which is RPMI-1640 (Sigma) comprising 10% human serum type AB (MP Biomedicals)), human PBMC (C.T.L.) (cell density: 1×10^6 cells/mL) was cultured at 37° C. in a culture vessel comprising 5% carbon dioxide for 3 days. Thereafter, the culture was washed with RPMI-1640 four times, and a medium (RPMI-1640 comprising 10% human serum type AB) was then added to the resultant culture to prepare a cell suspension. The cells (1×10^4 cells per well) and the serially diluted compound of the present invention were added to each well of a 96-well U-bottom microplate, and the thus obtained mixture was then cultured at 37° C. in a culture vessel comprising 5% carbon dioxide for 30 minutes. After completion of the culture, recombinant human IL-2 (Peprotech) was added to the culture to a final concentration of 2 ng/mL, and the obtained mixture was then stirred at 37° C. in a culture vessel comprising 5% carbon dioxide for 2 days (1×10^4 cells/100 μl/each well). After completion of the culture, the resultant was left at a room temperature for 30 minutes, and 100 μl of CellTiter-Glo Luminescent Cell Viability Assay (Promega) was then added to the resultant, followed by stirring it. Thereafter, the reaction mixture was left for 10 minutes, and the amount of a luminescence derived from living cells in each well was then measured using a microplate reader (TECAN). The inhibition rate of the present compound to the cell growth caused by IL-2 stimulation was calculated, and the concentration of the compound capable of inhibiting 50% of the cell growth was defined as an IC50 value (nM).

Chain of purified recombinant human JAK3 protein (P52333 whole entry): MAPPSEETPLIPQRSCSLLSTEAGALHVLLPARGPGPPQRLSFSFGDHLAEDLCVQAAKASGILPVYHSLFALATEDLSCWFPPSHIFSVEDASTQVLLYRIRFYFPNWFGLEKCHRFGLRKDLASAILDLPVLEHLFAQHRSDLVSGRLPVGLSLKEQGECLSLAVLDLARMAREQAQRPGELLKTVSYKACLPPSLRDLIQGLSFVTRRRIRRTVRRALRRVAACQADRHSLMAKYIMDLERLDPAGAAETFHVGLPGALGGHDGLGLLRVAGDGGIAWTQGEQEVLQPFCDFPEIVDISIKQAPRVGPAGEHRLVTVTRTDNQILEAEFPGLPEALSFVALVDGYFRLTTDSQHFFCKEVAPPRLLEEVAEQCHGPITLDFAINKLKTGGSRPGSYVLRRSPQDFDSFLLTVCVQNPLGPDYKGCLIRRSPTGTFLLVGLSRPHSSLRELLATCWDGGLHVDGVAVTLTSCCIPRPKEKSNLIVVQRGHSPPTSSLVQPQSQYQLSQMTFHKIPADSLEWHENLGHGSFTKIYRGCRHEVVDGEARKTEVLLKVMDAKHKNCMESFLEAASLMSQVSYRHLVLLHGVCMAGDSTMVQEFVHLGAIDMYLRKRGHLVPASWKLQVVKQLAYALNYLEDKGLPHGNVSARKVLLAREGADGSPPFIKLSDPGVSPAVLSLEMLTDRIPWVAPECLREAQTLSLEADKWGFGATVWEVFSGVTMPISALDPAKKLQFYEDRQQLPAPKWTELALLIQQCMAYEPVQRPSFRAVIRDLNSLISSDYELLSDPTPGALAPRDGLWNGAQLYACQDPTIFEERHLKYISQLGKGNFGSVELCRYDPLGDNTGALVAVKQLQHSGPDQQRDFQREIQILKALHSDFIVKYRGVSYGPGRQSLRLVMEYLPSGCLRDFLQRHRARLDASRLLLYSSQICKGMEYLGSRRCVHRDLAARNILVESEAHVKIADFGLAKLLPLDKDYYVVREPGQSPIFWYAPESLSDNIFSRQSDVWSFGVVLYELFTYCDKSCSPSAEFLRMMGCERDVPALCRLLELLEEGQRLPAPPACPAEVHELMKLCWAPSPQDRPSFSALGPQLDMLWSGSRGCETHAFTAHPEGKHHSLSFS

SMILES	IC50 [1] [nM]	IC50 [2] [nM]	IC50 [3] [nM]	IC50 (human PBMC) [nM]	JAK3-inhibiting activity attenuated in comparison to the compound of the present invention ([1]; in terms of IC50 value) [times]	selectivity to JAK3 versus JAK1 or JAK2 ([1]; in terms of IC50 value)
C=CC(=O)NC1C=C(c2ncnc3[nH]cc(-c4ccco4)c23)CCC1 (stereo not shown) [Compound 15, N-(3-(5-(Furan-2-yl)-7H-pyrrolo[2,3-d]pyrimidin-4-yl)cyclohex-2-en-1-yl)acrylamide]	0.33	2600	450			
C=CC(=O)NC1C=C(c2ncnc3[nH]cc(-c4ccccc4)c23)CCC1 (stereo not shown) [Compound 12, N-(3-(5-Phenyl-7H-pyrrolo[2,3-d]pyrimidin-4-yl)cyclohex-2-en-1-yl)acrylamide]	0.35	3200	870			
C=CC(=O)N[C@H]1CCC[C@@H](c2ncnc3[nH]cc(-c4ccco4)c23)C1 [Comparative Example 11(a), N-((1S,3R)-3-(5-(Furan-2-yl)-7H-pyrrolo[2,3-d]pyrimidin-4-yl)cyclohexyl)acrylamide, reference compound]	21	> 10000	2440	> 3000		
C=CC(=O)NC1CC=C(c2ncnc3[nH]cc(-c4ccccc4)c23)C1 (stereo not shown) [Compound 9, N-(3-(5-Phenyl-7H-pyrrolo[2,3-d]pyrimidin-4-yl)cyclopent-3-en-1-yl)acrylamide]	< 0.3	2100	880	99		
C=CC(=O)NC1CCC=C(c2ncnc3[nH]cc(-c4cc5ccccc5o4)c23)C1 (stereo not shown) [Comparative Example 9, N-(3-(5-(Benzofuran-2-yl)-7H-pyrrolo[2,3-d]pyrimidin-4-yl)cyclohex-3-en-1-yl)acrylamide, reference compound]				> 1000		
C/C=C/C(=O)NC1CCC=C(c2ncnc3[nH]cc(-c4ccccc4)c23)C1 (stereo not shown) [Comparative Example 2, (E)-N-(3-(5-Phenyl-7H-pyrrolo[2,3-d]pyrimidin-4-yl)cyclohex-3-en-1-yl)but-2-enamide, reference compound]	27	730			≥ 20	
C=CC(=O)NC1CCC=C(c2ncnc3[nH]cc(-c4ncccn4)c23)C1 (stereo not shown) [Comparative Example 8, N-(3-(5-(Pyrimidin-2-yl)-7H-pyrrolo[2,3-d]pyrimidin-4-yl)cyclohex-3-en-1-yl)acrylamide, reference compound]	21.4		> 10000		≥ 20	
C=CC(=O)NC1C=C(c2ncnc3[nH]cc(-c4cccs4)c23)CCC1 (stereo not shown) [Compound 13, N-(3-(5-(Thiophen-2-yl)-7H-pyrrolo[2,3-d]pyrimidin-4-yl)cyclohex-2-en-1-yl)acrylamide]	< 0.3	3200	490	110		
C=CC(=O)NC1CCC=C(c2ncnc3[nH]cc(-c4ccccc4)c23)C1 (stereo not shown) [Compound 1, N-(3-(5-phenyl-7H-pyrrolo[2,3-d]pyrimidin-4-yl)cyclohex-3-en-1-yl)acrylamide]	< 0.3	880	470			
C=CC(=O)NC1C=C(c2ncnc3[nH]cc(-c4ccsc4)c23)CCC1 (stereo not shown) [Compound 14, N-(3-(5-(Thiophen-3-yl)-7H-pyrrolo[2,3-d]pyrimidin-4-yl)cyclohex-2-en-1-yl)acrylamide]	< 0.3	5600	1200	110		
C=CC(=O)NC1C=C(c2ncnc3[nH]cc(-c4ccoc4)c23)CCC1 (stereo not shown) [Compound 16, N-(3-(5-(Furan-3-yl)-7H-pyrrolo[2,3-d]pyrimidin-4-yl)cyclohex-2-en-1-yl)acrylamide]	0.77	4900	1000			
C1=C(c2ncnc3[nH]ccc23)CCCC1 [Comparative Example 10, 4-(Cyclohex-1-en-1-yl)-7H-pyrrolo[2,3-d]pyrimidine, reference compound]	125	414	166		≥ 100	not observed
C=CC(=O)NC1CCC=C(c2ncnc3[nH]cc(-c4ccoc4)c23)C1 (stereo not shown) [Compound 4, N-(3-(5-(Furan-3-yl)-7H-pyrrolo[2,3-d]pyrimidin-4-yl)cyclohex-3-en-1-yl)acrylamide]	0.42	2900	1300			
C=C(C)C(=O)NC1CCC=C(c2ncnc3[nH]cc(-c4ccccc4)c23)C1 (stereo not shown) [Comparative Example 1, N-(3-(5-Phenyl-7H-pyrrolo[2,3-d]pyrimidin-4-yl)cyclohex-3-en-1-yl)methacrylamide, reference compound]	44	880			≥ 20	
C=CC(=O)NC1C=C(c2ncnc3[nH]cc(-c4ccccc4)c23)CC1 (stereo not shown) [Compound 10, N-(3-(5-Phenyl-7H-pyrrolo[2,3-d]pyrimidin-4-yl)cyclopent-2-en-1-yl)acrylamide]	0.68		660			
C=CC(=O)NC1CCC=C(c2ncnc3[nH]cc(-c4ccsc4)c23)C1 (stereo not shown) [Compound 3, N-(3-(5-(Thiophen-3-yl)-7H-pyrrolo[2,3-d]pyrimidin-4-yl)cyclohex-3-en-1-yl)acrylamide]	< 0.3	1500	850			
C=CC(=O)NC1CCC=C(c2ncnc3[nH]cc(-c4ccc(C)cc4)c23)C1 (stereo not shown) [Comparative Example 4, N-(3-(5-(p-Tolyl)-7H-pyrrolo[2,3-d]pyrimidin-4-yl)cyclohex-3-en-1-yl)acrylamide, reference compound]				> 1000		

From patent US10421760B2, “Pyrrolo[2,3-d]pyrimidine compound or salt thereof” (TAIHO PHARMACEUTICAL CO., LTD., priority 2015, dated 2019)
